Measurements taken from BindingDB's records for doi:10.7270/Q2736T2X (n/a, 1995).

Legend:
[1] = target: Muscarinic acetylcholine receptor M1/M2/M3/M4/M5; assay: Binding affinity towards muscarinic receptor using [3H]cis-methyldioxolane (CMD) to label agonist sites in membrane preparations from rat neocortex
[2] = target: Muscarinic acetylcholine receptor M1/M2/M3/M4/M5; assay: Binding affinity towards muscarinic receptor using [3H]quinuclidinyl benzilate (QNB) to label antagonist sites in membrane preparations from rat neocortex

For `O=[N+]([O-])c1cccc(C#CCO[N-][C+]2CN3CCC2C3)c1` (configuration not stated) [1-Aza-bicyclo[2.2.1]heptan-3-one O-[3-(3-nitro-phenyl)-prop-2-ynyl]-oxime], which IC50 [1] is on record?
The IC50 was 0.028 µM.

And the IC50 [2]?
Its IC50 is 6.4 µM.
